Experimental data taken from patent US6737383B1, “Herbicidal oxadiazolidines” (priority 1999, dated 2004).

Experiments:
[1] = test system: bedstraw; assay: Test B pre/postemergence bedstraw; format: in vivo, Galium aparine
Procedure, shortened: (§1)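 Test chemicals in a non-phytotoxic solvent mixture with surfactant were sprayed preemergence onto planted seeds and postemergence onto plants 2 to 18 cm tall (1- to 4-leaf stage). After twelve to sixteen days in a greenhouse, injury was visually rated against untreated controls from 0 (no effect) to 10 (complete control).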

[2] = test system: blackgrass; assay: Test B pre/postemergence blackgrass; format: in vivo, Alopecurus myosuroides
Procedure, shortened: as §1

[3] = test system: surinam grass; assay: Test B pre/postemergence surinam grass; format: in vivo, Brachiaria decumbens
Procedure, shortened: as §1

[4] = test system: cocklebur; assay: Test B pre/postemergence cocklebur; format: in vivo, Xanthium strumarium
Procedure, shortened: as §1

[5] = test system: corn; assay: Test B pre/postemergence corn; format: in vivo, Zea mays
Procedure, shortened: as §1

[6] = test system: crabgrass; assay: Test B pre/postemergence crabgrass; format: in vivo, Digitaria sanguinalis
Procedure, shortened: as §1

[7] = test system: giant foxtail; assay: Test B pre/postemergence giant foxtail; format: in vivo, Setaria faberii
Procedure, shortened: as §1

[8] = test system: morningglory; assay: Test B pre/postemergence morningglory; format: in vivo, Ipomoea hederacea
Procedure, shortened: as §1

[9] = test system: pigweed; assay: Test B pre/postemergence pigweed; format: in vivo, Amaranthus retroflexus
Procedure, shortened: as §1

[10] = test system: rape; assay: Test B pre/postemergence rape; format: in vivo, Brassica napus
Procedure, shortened: as §1

[11] = test system: soybean; assay: Test B pre/postemergence soybean; format: in vivo, Glycine max
Procedure, shortened: as §1

[12] = test system: sugar beet; assay: Test B pre/postemergence sugar beet; format: in vivo, Beta vulgaris; conditions: for Plant response rating, Sugarbeets: Rate 250 g/ha
Procedure, shortened: as §1

[13] = test system: velvetleaf; assay: Test B pre/postemergence velvetleaf; format: in vivo, Abutilon theophrasti; conditions: for Plant response rating, Velvetleaf: Rate 250 g/ha
Procedure, shortened: as §1

[14] = test system: wheat; assay: Test B pre/postemergence wheat; format: in vivo, Triticum aestivum; conditions: for Plant response rating, Wheat: Rate 250 g/ha
Procedure, shortened: as §1

[15] = test system: wild oat; assay: Test B pre/postemergence wild oat; format: in vivo, Avena fatua; conditions: for Plant response rating, Wild oats: Rate 250 g/ha
Procedure, shortened: as §1

[16] = test system: purple nutsedge; assay: Test B pre/postemergence purple nutsedge; format: in vivo, Cyperus rotundus
Procedure, shortened: as §1

[17] = Postemergence, Rate 62 g/ha, scale 0 to 10, 0 is no effect, 10 is complete control
[18] = Postemergence, Rate 250 g/ha, scale 0 to 10, 0 no effect, 10 complete control
[19] = Preemergence, Rate 62 g/ha, scale 0 to 10 (0 no effect, 10 complete control)
[20] = Preemergence, Rate 250 g/ha, scale of 0 to 10 where 0 is no effect and 10 is complete control
[21] = Rate 31 g/ha, Postemergence, scale 0 to 10
[22] = Rate 125 g/ha, Postemergence, scale 0 to 10, 0 no effect, 10 complete control
[23] = Postemergence, Rate 125 g/ha, scale of 0 to 10 where 0 is no effect and 10 is complete control
[24] = Preemergence, Rate 31 g/ha, visual rating, scale 0 to 10 (0 no effect, 10 complete control)
[25] = Preemergence, Rate 125 g/ha, scale 0 to 10 (0 no effect, 10 complete control)
[26] = Rate 62 g/ha, Postemergence, scale of 0 to 10 where 0 is no effect and 10 is complete control
[27] = Rate 250 g/ha, Postemergence, scale 0 to 10, 0 is no effect, 10 is complete control
[28] = Preemergence, Rate 125 g/ha, 0 is no effect, 10 is complete control
[29] = Preemergence, scale of 0 to 10 where 0 is no effect and 10 is complete control
[30] = Postemergence, scale 0 to 10, 0 is no effect, 10 is complete control

Cc1onc(-c2ccccc2)c1-n1c(=O)on(C(=O)N(c2ccc(F)cc2)C(C)C)c1=O [Compound 100]
0: Bedstraw plant response rating [1, 17] | Bedstraw plant response rating [1, 18] | Bedstraw plant response rating [1, 19] | Plant response rating, Bedstraw [1, 20] | Bedstraw plant response rating [1, 21] | Bedstraw plant response rating [1, 22] | Blackgrass plant response rating [2, 23] | Blackgrass plant response rating [2, 18] | Blackgrass plant response rating [2, 24] | Blackgrass plant response rating [2, 19] | Plant response rating, Blackgrass [2, 25] | Plant response rating, Blackgrass [2, 20] | Blackgrass plant response rating [2, 21] | Blackgrass plant response rating [2, 26] | B. signalgrass plant response rating [3, 17] | B. signalgrass plant response rating [3, 18] | B. signalgrass plant response rating [3, 24] | B. signalgrass plant response rating [3, 19] | Plant response rating, B. signalgrass [3, 25] | Plant response rating, B. signalgrass [3, 20] | B. signalgrass plant response rating [3, 21] | B. signalgrass plant response rating [3, 22] | Cocklebur plant response rating [4, 23] | Cocklebur plant response rating [4, 18] | Cocklebur plant response rating [4, 24] | Cocklebur plant response rating [4, 19] | Plant response rating, Cocklebur [4, 25] | Plant response rating, Cocklebur [4, 20] | Cocklebur plant response rating [4, 21] | Cocklebur plant response rating [4, 26] | Corn plant response rating [5, 23] | Corn plant response rating [5, 18] | Corn plant response rating [5, 24] | Corn plant response rating [5, 19] | Plant response rating, Corn [5, 25] | Plant response rating, Corn [5, 20] | Corn plant response rating [5, 21] | Corn plant response rating [5, 26] | Crabgrass plant response rating [6, 23] | Crabgrass plant response rating [6, 18] | Crabgrass plant response rating [6, 24] | Crabgrass plant response rating [6, 19] | Plant response rating, Crabgrass [6, 25] | Plant response rating, Crabgrass [6, 20] | Crabgrass plant response rating [6, 21] | Crabgrass plant response rating [6, 26] | Giant foxtail plant response rating [7, 23] | Giant foxtail plant response rating [7, 18] | Giant foxtail plant response rating [7, 24] | Giant foxtail plant response rating [7, 19] | Plant response rating, Giant foxtail [7, 25] | Plant response rating, Giant foxtail [7, 20] | Giant foxtail plant response rating [7, 21] | Giant foxtail plant response rating [7, 26] | Morningglory plant response rating [8, 23] | Morningglory plant response rating [8, 18] | Morningglory plant response rating [8, 24] | Morningglory plant response rating [8, 19] | Plant response rating, Morningglory [8, 25] | Plant response rating, Morningglory [8, 20] | Morningglory plant response rating [8, 21] | Morningglory plant response rating [8, 26] | Redroot pigweed plant response rating [9, 23] | Redroot pigweed plant response rating [9, 24] | Redroot pigweed plant response rating [9, 19] | Plant response rating, Redroot pigweed [9, 25] | Plant response rating, Redroot pigweed [9, 20] | Redroot pigweed plant response rating [9, 21] | Redroot pigweed plant response rating [9, 26] | Plant response rating, Redroot pigweed [9, 27] | Rape plant response rating [10, 23] | Rape plant response rating [10, 18] | Rape plant response rating [10, 24] | Rape plant response rating [10, 19] | Plant response rating, Rape [10, 25] | Plant response rating, Rape [10, 20] | Rape plant response rating [10, 21] | Rape plant response rating [10, 26] | Soybean plant response rating [11, 23] | Soybean plant response rating [11, 24] | Soybean plant response rating [11, 19] | Plant response rating, Soybean [11, 25] | Plant response rating, Soybean [11, 20] | Soybean plant response rating [11, 26] | Plant response rating, Soybean [11, 27] | Sugarbeets plant response rating [12, 23] | Sugarbeets plant response rating [12, 24] | Sugarbeets plant response rating [12, 19] | Sugarbeets plant response rating (0 to 10 scale) [12, 28] | Plant response rating, Sugarbeets [12, 29] | Sugarbeets plant response rating [12, 26] | Plant response rating, Sugarbeets [12, 30] | Velvetleaf plant response rating [13, 23] | Velvetleaf plant response rating [13, 24] | Velvetleaf plant response rating [13, 19] | Velvetleaf plant response rating (0 to 10 scale) [13, 28] | Plant response rating, Velvetleaf [13, 29] | Velvetleaf plant response rating [13, 26] | Plant response rating, Velvetleaf [13, 30] | Wheat plant response rating [14, 23] | Wheat plant response rating [14, 24] | Wheat plant response rating [14, 19] | Wheat plant response rating (0 to 10 scale) [14, 28] | Plant response rating, Wheat [14, 29] | Wheat plant response rating [14, 26] | Plant response rating, Wheat [14, 30] | Wild oats plant response rating [15, 23] | Wild oats plant response rating [15, 24] | Wild oats plant response rating [15, 19] | Wild oats plant response rating (0 to 10 scale) [15, 28] | Plant response rating, Wild oats [15, 29] | Wild oats plant response rating [15, 26] | Plant response rating, Wild oats [15, 30] | Nutsedge plant response rating [16, 23] | Nutsedge plant response rating [16, 18] | Nutsedge plant response rating [16, 24] | Nutsedge plant response rating [16, 19] | Plant response rating, Nutsedge [16, 25] | Plant response rating, Nutsedge [16, 20] | Nutsedge plant response rating [16, 21] | Nutsedge plant response rating [16, 26]
